Assay results published in patent US20020055528A1, “Artemisinin analogs having antimalarial, antiproliferative, and antitumor activities and chemoselective methods of making the same” (priority 1999, published 2002).

What was measured:
Format in all cases: cell-based
K-562 = assay: NCI 60 cell line screen (SRB), Leukemia
RPMI-8226 = assay: NCI 60 cell line screen (SRB), Leukemia
NCI-H226 = assay: NCI 60 cell line screen (SRB), Non-Small Cell Lung Cancer
NCI-H460 = assay: as above; settings: PG=0
COLO 205 = assay: NCI 60 cell line screen (SRB), Colon Cancer
HCT-116 = assay: NCI 60 cell line screen (SRB), Colon Cancer; settings: PG=0
SW-620 = assay: NCI 60 cell line screen (SRB), Colon Cancer
UACC-257 = assay: NCI 60 cell line screen (SRB), Melanoma; settings: PG=0
UACC-62 = assay: NCI 60 cell line screen (SRB), Melanoma
OVCAR-4 = assay: NCI 60 cell line screen (SRB), Ovarian Cancer
CAKI-1 = assay: NCI 60 cell line screen (SRB), Renal Cancer; settings: Table IV (LC50, PG=−50)
PC-3 = assay: NCI 60 cell line screen (SRB), Prostate Cancer; settings: PG=0
MCF7 = assay: NCI 60 cell line screen (SRB), Breast Cancer
MDA-MB231/ATCC = assay: NCI 60 cell line screen (SRB), Breast Cancer; settings: MDA- (first line of MDA-MB231/ATCC); PG=0
HS 578T = assay: NCI 60 cell line screen (SRB), Breast Cancer; settings: PG=+50
MDA-MB-435 = assay: NCI 60 cell line screen (SRB), Breast Cancer; settings: MDA-MB−435; PG=+50
MDA-N = assay: NCI 60 cell line screen (SRB), Breast Cancer

In the case of `CC(=O)O[C@H]1C(=O)[C@@]2(C)[C@H]([C@H](OC(=O)c3ccccc3)[C@]3(O)C[C@H](OC(=O)[C@H](O)[C@@H](NC(=O)c4ccccc4)c4ccccc4)C(C)=C1C3(C)C)[C@]1(OC(C)=O)CO[C@@H]1C[C@@H]2O` [Paclitaxel, paclitaxel, reference compound], the Log10TGI (K-562; PG=0) is reported as −10.83 log10M, the Log10GI50 (K-562; PG=+50) is reported as −10.83 log10M and the Log10GI50 (K-562; Table IV (LC50, PG=−50)) is reported as >−4.00 log10M. For the same compound, the Log10TGI (RPMI-8226; PG=0) was <-13.00 log10M, the Log10GI50 (RPMI-8226; PG=+50) was <−13.00 log10M and the Log10GI50 (RPMI-8226; Table IV (LC50, PG=−50)) was >−4.00 log10M. It also gave a Log10TGI (NCI-H226; PG=0) of −4.80 log10M, a Log10GI50 (NCI-H226; Table IV (LC50, PG=−50)) of −4.10 log10M and a Log10TGI (NCI-H460) of −4.46 log10M. The Log10GI50 (COLO 205; PG=+50) was −11.07 log10M, the Log10GI50 (COLO 205; Table IV (LC50, PG=−50)) was >−4.41 log10M and the Log10TGI (HCT-116) was −4.82 log10M. The Log10TGI (SW-620; PG=0) was >−4.00 log10M, the Log10GI50 (SW-620; PG=+50) was −11.60 log10M and the Log10TGI (UACC-257) was −4.52 log10M. It also gave a Log10TGI (UACC-62; PG=0) of −4.71 log10M, a Log10GI50 (UACC-62; PG=+50) of −10.46 log10M and a Log10GI50 (UACC-62; Table IV (LC50, PG=−50)) of −4.19 log10M. For the same compound, the Log10GI50 (OVCAR-4; OVCAR-4, PG=+50) was −5.00 log10M, the Log10TGI (OVCAR-4; OVCAR−4, PG=0) was −4.19 log10M and the Log10GI50 (OVCAR-4; Table IV (LC50, PG=−50), OVCAR−4) was >−4.00 log10M. For the same compound, the Log10GI50 (CAKI-1) was >−4.00 log10M, the Log10TGI (PC-3) was >−4.00 log10M and the Log10GI50 (MCF7; PG=+50) was −11.69 log10M. For the same compound, the Log10GI50 (MCF7; Table IV (LC50, PG=−50)) was >−4.00 log10M, the Log10TGI (MDA-MB231/ATCC) was −4.84 log10M and the Log10GI50 (HS 578T) was <-13.00 log10M. For the same compound, the Log10GI50 (MDA-MB-435) was <-13.00 log10M, the Log10TGI (MDA-N; PG=0) was −6.32 log10M and the Log10GI50 (MDA-N; PG=+50) was −9.31 log10M. The Log10GI50 (MDA-N; Table IV (LC50, PG=−50)) was >−4.00 log10M.
